# Measured values as given in US20160102066A1, “BENZOTHIAZOLE DERIVATIVE AND ANTI-TUMOR USE THEREOF” (YANTAI UNIVERSITY, priority 2014, published 2016).
# Tested on: prostate cancer RM-1 transplanted tumor
# Test: mice prostate cancer RM-1 transplanted tumor, in vivo
# Settings: male C57/BL6 mice, i.p., Docetaxel 10 mg/kg × 3, 1-1 100 mg/kg × 4
# Protocol: The experiment procedures are summarized as follows: mice who had prostate cancer RM-1 and grown well were sacrificed by cervical dislocation. Under sterile conditions, tumor mass growing well was stripped off, homogenized, diluted with physiological saline in 1:4. Each mouse was inoculated 0.2 mL of the tumor solution in the armpit and back (approximately 2*10^6 cells). On the next day; the animals were randomized into groups and the administration began. […] The dosing volume was 0.1 mL/10 g. At the same time, docetaxel control group and solvent control group were set. As for the docetaxel group, the animals were administered by intraperitoneal injection at 10 mg/kg dose, the dosing volume was 0.1 mL/10 g. After continuous administration for 10 days, the animals were sacrificed by cervical dislocation, weighed the body and the tumor, respectively. Inhibition rate of tumor growth (%) was calculated, and the results were statistically processed.
compound,measurement,setting,value
"CC(=O)O[C@@]12CO[C@@H]1C[C@H](O)[C@@]1(C)C(=O)[C@H](O)C3=C(C)[C@@H](OC(=O)[C@H](O)[C@@H](NC(=O)OC(C)(C)C)c4ccccc4)C[C@@](O)([C@@H](OC(=O)c4ccccc4)[C@H]21)C3(C)C [Docetaxel, docetaxel]",Tumor weight,,1.77 ± 0.61 g
same,"body weight of Animals, Final",at sacrifice,18.43 ± 2.17 g
same,"body weight of Animals, Initial",baseline,20.00 ± 1.07 g
same,Inhibition rate of tumor growth,versus solvent control,32%
